# Tests used:
# actMMP-2 / CI = molecular target: T1, actMMP-2 / CI (Homo sapiens, UniProt P08253); assay: SPR, competition of actMMP-2 binding to CI, MMP activity buffer with Ro 28-2653; settings: actMMP-2 100 nM, 1 μM Ro 28-2653, 25°C, mean ± SD, at least three experiments
# T1 construct: purchased Invitek
# T1 sequence (P08253 110-660): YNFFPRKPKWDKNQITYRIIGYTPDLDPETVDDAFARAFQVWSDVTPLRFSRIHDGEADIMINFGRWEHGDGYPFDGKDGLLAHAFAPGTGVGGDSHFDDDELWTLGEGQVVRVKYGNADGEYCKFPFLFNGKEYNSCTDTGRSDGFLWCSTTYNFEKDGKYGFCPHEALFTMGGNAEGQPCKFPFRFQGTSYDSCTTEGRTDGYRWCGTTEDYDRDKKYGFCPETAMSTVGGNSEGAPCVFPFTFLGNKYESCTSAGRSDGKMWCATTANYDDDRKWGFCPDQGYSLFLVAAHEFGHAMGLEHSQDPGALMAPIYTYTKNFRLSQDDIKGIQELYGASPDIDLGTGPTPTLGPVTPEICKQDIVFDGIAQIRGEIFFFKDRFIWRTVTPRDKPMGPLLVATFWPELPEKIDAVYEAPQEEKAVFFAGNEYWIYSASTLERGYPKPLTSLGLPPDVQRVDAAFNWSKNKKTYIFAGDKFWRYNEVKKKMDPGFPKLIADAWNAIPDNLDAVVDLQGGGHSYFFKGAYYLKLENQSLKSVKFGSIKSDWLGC
# Description: Sensor chip preparations and SPR measurements were performed using a BiacoreX device and the Bia-evaluation software (version 3.2; Biacore, Uppsala, Sweden). The pepsin-resistant triple-helical part of human fibrillar CI (100 μg/ml) in 10 mM acetate coupling buffer, pH 4.8, was immobilized to a dextran matrix-sensor chip at a flow rate of 5 μl/min, resulting in 5,500 resonance units from CI covalently linked via its primary amino groups. The control flow cell was prepared using the coupling buffer without CI. Surfaces were activated and blocked as described previously. […] The effects of (GPO)10, GAP, (POG)5, (GPP)10 and P33-42 on MMP-2 and MMP-9 binding to CI and their enzymatic activity were determined by adding the binding competitors to the (pro- and act)MMP-2 and MMP-9 solution in 10- to 150-fold molar excesses. Effects independent of MMP-2 and MMP-9 activity were monitored in the presence of Ro 28-2653 (1 μM) during SPR analysis. […] Kinetic parameters were analyzed using the 1:1 binding model with drifting baseline and subtraction of the control flow cell binding from sensorgrams obtained with immobilized CI. Binding constants (Kd) were calculated from the association (ka) and dissociation rates (kd) obtained from individual binding curves at different concentrations. […]
# [1] = test system: Cy2-proMMP-2 bound to cirrhotic human liver tissue; assay: Release / prevention of binding of Cy2-proMMP-2 in cirrhotic liver sections; settings: 10-fold molar excess, fluorescence microscopy
# Description: ProMMP-2 was labeled using the FluoroLink Cy2 Labeling Kit according to the manufacturer's instructions (Amersham Biosciences, Freiburg, Germany). Unbound fluorescent dye was removed by ultrafiltration (Nanosep, Lund, Sweden), and labeling success was monitored using a fluorescence microplate reader (λex/em, 489/506 nm). Serial cirrhotic human liver sections were covered with 1.2 μg/ml Cy2-proMMP-2 in 50 mM Tris·HCl, pH 7.4, containing 1 mM CaCl2 or with buffer alone, and were incubated in a dark humidified chamber for 24 h at 4°C. To study effects of (GPO)10, a 10-fold molar excess in relation to proMMP-2 was added to slides prior to or after Cy2-proMMP-2 binding. Slides were washed with PBS, air-dried, and rinsed with deionized water. Bound Cy2-proMMP-2 was detected by fluorescence microscopy (Olympus, Hamburg, Germany).
substance,measurement,setting,value
"H-Gly-Cys-Hyp-(Gly-Pro-Hyp)10-Gly-Cys-Hyp-Gly-NH2 [(GPO)10, triple-helical Hyp-containing collagen analog]",Kd for binding to CI in the presence of 10-fold molar excess of competitor,actMMP-2 / CI,"2,710.0 ± 90.0 nM"
same,prevention of binding of Cy2-proMMP-2,[1]; coincubation,prevented gelatinase binding
same,release of bound Cy2-proMMP-2,[1]; subsequent treatment,promoted effective release of the sequestered enzyme

# — article PMC3024946, “Hydroxyproline-containing collagen analogs trigger the release and activation of collagen-sequestered proMMP-2 by competition with prodomain-derived peptide P33-42” (Fibrogenesis & Tissue Repair, 2011)
